Where two headings read alike, the source gives them in different places.
Legend:
Assay type in all cases: biochemical
MGLL = target: T1, MGLL (Mus musculus, UniProt O35678); assay: In vitro competitive activity-based protein profiling, mouse brain proteome (MGLL); conditions: concentration not given (μM)
T1 construct: Brain; from tissue; host or cells: mouse brain proteome
T1 sequence (O35678 1-303): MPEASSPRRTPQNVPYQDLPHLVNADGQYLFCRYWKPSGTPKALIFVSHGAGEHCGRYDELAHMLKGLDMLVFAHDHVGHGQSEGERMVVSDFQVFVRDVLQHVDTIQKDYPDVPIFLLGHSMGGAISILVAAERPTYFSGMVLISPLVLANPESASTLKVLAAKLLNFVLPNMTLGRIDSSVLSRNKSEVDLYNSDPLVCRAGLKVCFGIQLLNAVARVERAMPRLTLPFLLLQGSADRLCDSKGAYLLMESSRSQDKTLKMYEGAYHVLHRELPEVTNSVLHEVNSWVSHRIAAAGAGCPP

MAGL = target: T2, MAGL (Homo sapiens, UniProt Q99685); assay: In vitro competitive activity-based protein profiling (FP-Rh or HT-01 probe, gel-based); conditions: for % Inh MGLL PFC (Human, μM) / % Inh MGLL PC3 (Human, μM): concentration not given (μM)
T2 construct: Proteomes (human prefrontal cortex or cell membrane fractions); from tissue
T2 sequence (Q99685 1-303): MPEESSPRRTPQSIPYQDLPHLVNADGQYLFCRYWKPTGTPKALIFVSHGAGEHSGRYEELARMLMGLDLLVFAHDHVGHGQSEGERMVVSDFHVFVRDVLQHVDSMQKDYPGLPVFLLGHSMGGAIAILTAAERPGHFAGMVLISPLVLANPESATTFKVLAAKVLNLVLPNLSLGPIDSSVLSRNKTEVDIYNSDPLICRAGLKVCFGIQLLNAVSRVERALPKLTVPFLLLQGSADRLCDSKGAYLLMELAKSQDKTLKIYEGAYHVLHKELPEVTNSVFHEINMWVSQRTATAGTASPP
In short: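 Human prefrontal cortex or cell membrane proteomes (1.0 mg/mL total protein) were preincubated with varying inhibitor concentrations for 30 min at 37° C. FP-Rh or HT-01 probe (50 μM DMSO stock) was then added for 30 min at room temperature, and samples were quenched in SDS loading buffer and resolved by SDS-PAGE.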

ABHD6 = target: T3, ABHD6 (Mus musculus, UniProt Q8R2Y0); assay: In vitro competitive activity-based protein profiling, mouse brain proteome (ABHD6); conditions: mouse brain proteome; concentration not given (μM)
T3 construct: Brain; from tissue; host or cells: mouse brain proteome
T3 sequence (Q8R2Y0 1-336): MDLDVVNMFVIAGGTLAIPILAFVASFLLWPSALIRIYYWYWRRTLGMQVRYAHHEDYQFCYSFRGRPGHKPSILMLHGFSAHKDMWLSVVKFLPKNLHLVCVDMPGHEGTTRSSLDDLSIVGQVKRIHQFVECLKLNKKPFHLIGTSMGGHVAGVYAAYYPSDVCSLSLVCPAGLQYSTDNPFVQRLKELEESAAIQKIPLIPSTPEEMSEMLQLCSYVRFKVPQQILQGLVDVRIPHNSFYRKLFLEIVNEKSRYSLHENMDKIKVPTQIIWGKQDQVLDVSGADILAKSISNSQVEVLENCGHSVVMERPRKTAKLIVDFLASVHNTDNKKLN
Method: [The source words this procedure for another target and reports this target under the same test.] In Vitro Competitive Activity-Based Protein Profiling.
Proteomes (human prefrontal cortex or cell membrane fractions) (50 μL, 1.0 mg/mL total protein concentration) were preincubated with varying concentrations of inhibitors at 37° C. After 30 min, FP-Rh or HT-01 (1.0 μL, 50 μM in DMSO) was added and the mixture was incubated for another 30 min at room temperature. Reactions were quenched with SDS loading buffer (15 μL-4×) and run on SDS-PAGE.

[1] = prefrontal cortex (PFC) proteome
[2] = PC3 cell proteome, read-out: IC50 MGLL PC3 (Human)

Row | SMILES | % Inh MGLL Brain (Mouse, μM) (MGLL) | % Inh MGLL PFC (Human, μM) (MAGL; [1]) | % Inh ABHD6 Brain (Mouse, μM) (ABHD6) | % Inh MGLL PC3 (Human, μM) (MAGL; PC3 cell proteome) | IC50 (MAGL; prefrontal cortex (PFC) proteome, read-out: IC50 MGLL PFC (Human)) [nM] | IC50 (MAGL; [2]) [nM]
1 | O=C(OC(C(F)(F)F)C(F)(F)F)N1CC2(CCN(Cc3ccc(C(F)(F)F)cc3N3CCCC3)CC2)C1 [Example 150, 1,1,1,3,3,3-Hexafluoropropan-2-yl 7-(2-(pyrrolidin-1-yl)-4-(trifluoromethyl)benzyl)-2,7-diazaspiro[3.5]nonane-2-carboxylate] | # (# is ≤25%) | ## (## is between 25 and 75%) | ### (### is ≥75%) | – | – | –
2 | O=C(O)CN1CCC2(CCN(c3cc(C(F)(F)F)ccc3CN3CCCC34CCN(C(=O)OC(C(F)(F)F)C(F)(F)F)CC4)CC2)C1 [Example 153, 2-(8-(2-((8-(((1,1,1,3,3,3-Hexafluoropropan-2-yl)oxy)carbonyl)-1,8-diazaspiro[4.5]decan-1-yl)methyl)-5-(trifluoromethyl)phenyl)-2,8-diazaspiro[4.5]decan-2-yl)acetic acid] | ### (### is ≥75%) | ### (### is ≥75%) | # (# is ≤25%) | – | – | –
3 | O=C(O)CN1CCC2(CC1)CCN(c1cc(C(F)(F)F)ccc1CN1CCCC13CCN(C(=O)OC(C(F)(F)F)C(F)(F)F)CC3)C2 [Example 154, 2-(2-(2-((8-(((1,1,1,3,3,3-Hexafluoropropan-2-yl)oxy)carbonyl)-1,8-diazaspiro[4.5]decan-1-yl)methyl)-5-(trifluoromethyl)phenyl)-2,1-diazaspiro[4.5]decan-8-yl)acetic acid] | ### (### is ≥75%) | ### (### is ≥75%) | # (# is ≤25%) | – | – | –
4 | O=C(O)CN1CC2CN(c3cc(C(F)(F)F)ccc3CN3CCCC34CCN(C(=O)OC(C(F)(F)F)C(F)(F)F)CC4)CC2C1 (stereo not drawn) [Example 155] | ### (### is ≥75%) | ### (### is ≥75%) | # (# is ≤25%) | – | – | –
5 | O=C(O)CN1CCC2(CC1)CN(c1cc(C(F)(F)F)ccc1CN1CCCC13CCN(C(=O)OC(C(F)(F)F)C(F)(F)F)CC3)C2 [Example 156, 2-(2-(2-((8-(((1,1,1,3,3,3-Hexafluoropropan-2-yl)oxy)carbonyl)-1,8-diazaspiro[4.5]decan-1-yl)methyl)-5-(trifluoromethyl)phenyl)-2,7-diazaspiro[3.5]nonan-7-yl)acetic acid] | ### (### is ≥75%) | ### (### is ≥75%) | # (# is ≤25%) | – | – | –
6 | O=C(O)CN1CC2(CCN(c3cc(C(F)(F)F)ccc3CN3CCCC34CCN(C(=O)OC(C(F)(F)F)C(F)(F)F)CC4)CC2)C1 [Example 157, 2-(7-(2-((8-(((1,1,1,3,3,3-Hexafluoropropan-2-yl)oxy)carbonyl)-1,8-diazaspiro[4.5]decan-1-yl)methyl)-5-(trifluoromethyl)phenyl)-2,7-diazaspiro[3.5]nonan-2-yl)acetic acid] | ### (### is ≥75%) | ### (### is ≥75%) | # (# is ≤25%) | – | – | –
7 | O=C(O)CN1CC2(CCN(c3cc(CN4CCCC45CCN(C(=O)OC(C(F)(F)F)C(F)(F)F)CC5)cc(C(F)(F)F)c3)CC2)C1 [Example 158, 2-(7-(3-((8-(((1,1,1,3,3,3-Hexafluoropropan-2-yl)oxy)carbonyl)-1,8-diazaspiro[4.5]decan-1-yl)methyl)-5-(trifluoromethyl)phenyl)-2,7-diazaspiro[3,5]nonan-2-yl)acetic acid] | ### (### is ≥75%) | ### (### is ≥75%) | # (# is ≤25%) | – | – | –
8 | O=C(O)C1CCCN1C1CCN(c2cc(C(F)(F)F)ccc2CN2CCCC23CCN(C(=O)OC(C(F)(F)F)C(F)(F)F)CC3)CC1 (stereo not drawn) [Example 159] | ### (### is ≥75%) | – | # (# is ≤25%) | ### (### is ≥75%) | < 100 | –
9 | O=C(O)[C@H]1CCCN1C1CCN(c2cc(C(F)(F)F)ccc2CN2CCCC23CCN(C(=O)OC(C(F)(F)F)C(F)(F)F)CC3)CC1 [Example 160, (1-(2-((8-(((1,1,1,3,3,3-Hexafluoropropan-2-yl)oxy)carbonyl)-1,8-diazaspiro[4.5]decan-l-yl)methyl)-5-(trifluoromethyl)phenyl)piperidin-4-yl)-D-proline] | ### (### is ≥75%) | – | # (# is ≤25%) | ### (### is ≥75%) | – | < 100
10 | CN(Cc1ccc(C(F)(F)F)cc1N1CCC(N2CCC[C@H]2C(=O)O)CC1)C1(C)CCN(C(=O)OC(C(F)(F)F)C(F)(F)F)CC1 [Example 161, (1-(2-(((1-(((1,1,1,3,3,3-Hexafluoropropan-2-yl)oxy)carbonyl)-4-methylpiperidin-4-yl)(methyl)ainino)methyl)-5-(trifluoromethyl)phenyl)piperidin-4-yl)proline] | ### (### is ≥75%) | – | ### (### is ≥75%) | ### (### is ≥75%) | – | < 100
11 | CN(Cc1ccc(C(F)(F)F)cc1N1CCC(N2CCC[C@@H]2C(=O)O)CC1)C1(C)CCN(C(=O)OC(C(F)(F)F)C(F)(F)F)CC1 [Example 162, (1-(2-(((1-(((1,1,1,3,3,3-Hexafluoropropan-2-yl)oxy)carbonyl)-4-methylpiperidin-4-yl)(methyl)amino)methyl)-5-(trifluoromethyl)phenyl)piperidin-4-yl)-D-proline] | ### (### is ≥75%) | – | # (# is ≤25%) | ### (### is ≥75%) | – | < 100
12 | CN(Cc1ccc(C(F)(F)F)cc1N1CCC(N2CCC[C@H]2C(=O)O)CC1)C1(C)CCN(C(=O)OC(C(F)(F)F)C(F)(F)F)CC1 [Example 163, (1-(2-(((1-(((1,1,1,3,3,3-Hexafluoropropan-2-yl)oxy)carbonyl)-4-methylpiperidin-4-yl)(methyl)amino)methyl)-5-(trifluoromethyl)phenyl)piperidin-4-yl)-L-proline] | ### (### is ≥75%) | – | # (# is ≤25%) | ### (### is ≥75%) | – | < 100
13 | O=C(O)[C@@H]1CCCN1C1CCN(c2cc(C(F)(F)F)ccc2CN2CCCC23CCN(C(=O)OC(C(F)(F)F)C(F)(F)F)CC3)CC1 [Example 164, (1-(2-((8-(((1,1,1,3,3,3-Hexafluoropropan-2-yl)oxy)carbonyl)-1,8-diazaspiro[4.5]decan-1-yl)methyl)-5-(trifluoromethyl)phenyl)piperidin-4-yl)-L-proline] | ### (### is ≥75%) | – | # (# is ≤25%) | ### (### is ≥75%) | – | < 100
14 | O=C(O)C1CCN(c2c(Cl)cccc2CN2CCC3(CC2)CCN(C(=O)OC(C(F)(F)F)C(F)(F)F)C3)CC1 [Example 218, l-(2-Chloro-6-{(2-(((1,1,1,3,3,3-hexafluoropropan-2-yl)oxy)carbonyl)-2,8-diazaspiro[4.5]decan-8-yl)methyl)phenyl)piperidine-4-carboxylic acid] | ### (### is ≥75%) | ### (### is ≥75%) | # (# is ≤25%) | – | – | –
